Source: paper PMC12669672, “Structural insights into selective and dual antagonism of EP2 and EP4 prostaglandin receptors” (The EMBO Journal, 2025)
Several values for one entry are separate records, joined by “and”; a condition that tells them apart may be missing. Equal entries are not always repeated. Where two headings read alike, the source gives them in different places.

Assays:
Type in all cases: cell-based
EP2-L301I = target: T1, EP2-L301I (Homo sapiens, UniProt P43116, L301I); assay: GloSensor cAMP assay, antagonism of PGE2-induced cAMP, chimeric studies; conditions: single experiments 1st-3rd
T1 construct: The full-length EP2 or EP4 was cloned into the pcDNA3.1 vector; FLAG (N); expressed in transfected cells; host or cells: AD293 cells
T1 sequence (P43116 whole entry L301I): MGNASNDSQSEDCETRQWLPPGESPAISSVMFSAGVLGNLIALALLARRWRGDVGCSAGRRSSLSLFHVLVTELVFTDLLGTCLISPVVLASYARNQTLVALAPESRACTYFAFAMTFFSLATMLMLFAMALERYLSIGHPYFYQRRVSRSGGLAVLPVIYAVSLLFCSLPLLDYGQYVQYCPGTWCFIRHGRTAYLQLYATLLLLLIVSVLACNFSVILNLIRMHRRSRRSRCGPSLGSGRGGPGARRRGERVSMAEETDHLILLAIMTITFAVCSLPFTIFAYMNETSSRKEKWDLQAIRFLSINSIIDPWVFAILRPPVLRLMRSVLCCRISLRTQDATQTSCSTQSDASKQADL
Experimental: (§1) The full-length EP2 or EP4 was cloned into the pcDNA3.1 vector (Invitrogen), incorporating an N-terminal FLAG tag. AD293 cells were seeded in six-well plates containing DMEM supplemented with 10% dialyzed FBS 1 day prior to transfection. Following overnight growth, cells were transfected with a 1:1 ratio of receptor construct and GloSensor22F cAMP biosensor (Promega) plasmids.
(§2) Twenty-four hours post-transfection, the cells were transferred to CO2-independent media containing 2% GloSensor cAMP Reagent (Promega) and distributed into 384-well assay plates at a density of 4000 cells per well in 10 μL. […] The plates were then incubated at 37 °C for an additional hour before luminescence measurements were taken using an EnVision plate reader.
(§3) Data analysis was performed using GraphPad Prism software v8.0.1. A nonlinear regression analysis, employing a sigmoidal dose–response model, was conducted to determine the Emax values and half-maximum inhibitory concentrations (IC50) for each compound tested.

EP2-M116L = target: T2, EP2-M116L (Homo sapiens, UniProt P43116, M116L); assay: as above; conditions: single experiments 1st-3rd
T2 construct: The full-length EP2 or EP4 was cloned into the pcDNA3.1 vector; FLAG (N); expressed in transfected cells; host or cells: AD293 cells
T2 sequence (P43116 whole entry M116L): as the sequence (P43116 whole entry L301I) above, with M116L, I301L counted along it
Experimental: as §1, §2, §3

EP2-I85V = target: T3, EP2-I85V (Homo sapiens, UniProt P43116, I85V); assay: as above; conditions: single experiments 1st-3rd
T3 construct: The full-length EP2 or EP4 was cloned into the pcDNA3.1 vector; FLAG (N); expressed in transfected cells; host or cells: AD293 cells
T3 sequence (P43116 whole entry I85V): as the sequence (P43116 whole entry L301I) above, with I85V, I301L counted along it
Experimental: as §1, §2, §3

[1] = target: T4, constitutively active EP2 S305A (Homo sapiens, UniProt P43116, S305A); assay: GloSensor cAMP assay, inhibition of constitutive activity
T4 construct: The full-length EP2 or EP4 was cloned into the pcDNA3.1 vector; FLAG (N); expressed in transfected cells; host or cells: AD293 cells
T4 sequence (P43116 whole entry S305A): as the sequence (P43116 whole entry L301I) above, with I301L, S305A counted along it
Experimental: as §1, §2, §3

[2] = target: T5, constitutively active EP4 V72A (Homo sapiens, UniProt P35408, V72A); assay: as above
T5 construct: The full-length EP2 or EP4 was cloned into the pcDNA3.1 vector (Invitrogen), incorporating an N-terminal FLAG tag; expressed in transfected cells; host or cells: AD293
T5 sequence (P35408 whole entry V72A): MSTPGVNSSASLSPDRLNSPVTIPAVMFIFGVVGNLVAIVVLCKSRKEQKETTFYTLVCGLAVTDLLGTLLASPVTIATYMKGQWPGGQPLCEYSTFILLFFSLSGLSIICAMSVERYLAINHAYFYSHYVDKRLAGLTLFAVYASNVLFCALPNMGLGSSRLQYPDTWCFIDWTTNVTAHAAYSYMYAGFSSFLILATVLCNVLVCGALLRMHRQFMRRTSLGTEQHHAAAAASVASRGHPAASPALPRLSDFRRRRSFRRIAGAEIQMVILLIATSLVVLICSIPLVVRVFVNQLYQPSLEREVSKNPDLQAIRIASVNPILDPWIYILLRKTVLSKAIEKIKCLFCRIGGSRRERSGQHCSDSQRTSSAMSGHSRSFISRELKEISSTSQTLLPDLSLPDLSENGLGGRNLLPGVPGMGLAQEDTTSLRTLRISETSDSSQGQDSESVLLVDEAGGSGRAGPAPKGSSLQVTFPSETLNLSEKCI
Experimental: as §1, §2, §3

[3] = target: T6, constitutively active EP4 WT (Homo sapiens, UniProt P35408); assay: as above
T6 construct: The full-length EP2 or EP4 was cloned into the pcDNA3.1 vector (Invitrogen), incorporating an N-terminal FLAG tag; expressed in transfected cells; host or cells: AD293
T6 sequence (P35408 whole entry): as the sequence (P35408 whole entry V72A) above, with A72V counted along it
Experimental: as §1, §2, §3

[4] = target: T7, constitutively active EP2 S308A (Homo sapiens, UniProt P43116, S308A); assay: as above
T7 construct: The full-length EP2 or EP4 was cloned into the pcDNA3.1 vector; FLAG (N); expressed in transfected cells; host or cells: AD293 cells
T7 sequence (P43116 whole entry S308A): as the sequence (P43116 whole entry L301I) above, with I301L, S308A counted along it
Experimental: as §1, §2, §3

[5] = target: T8, constitutively active EP2 WT (Homo sapiens, UniProt P43116); assay: as above
T8 construct: The full-length EP2 or EP4 was cloned into the pcDNA3.1 vector; FLAG (N); expressed in transfected cells; host or cells: AD293 cells
T8 sequence (P43116 whole entry): as the sequence (P43116 whole entry L301I) above, with I301L counted along it
Experimental: as §1, §2, §3

[6] = 1 h, ligand log([M]) -5, Fig. S7B, read-out: % cAMP activity (normalized to WT)
[7] = 1 h, ligand log([M]) -6, Fig. S7B, read-out: % cAMP activity (normalized to WT)
[8] = 1 h, ligand log([M]) -10, Fig. S7B, read-out: % cAMP activity (normalized to WT)
[9] = 1 h, ligand log([M]) -11, Fig. S7B, read-out: % cAMP activity (normalized to WT)
[10] = 1 h, ligand log([M]) -12, Fig. S7B, read-out: % cAMP activity (normalized to WT)
[11] = no PGE2, pIC50 mutant - pIC50 WT, mean

`CCc1nnc(NS(=O)(=O)c2ccc(NC(=S)NC(=O)/C=C/c3ccc(F)cc3)cc2)s1` [TG6-129] was tested. Which remaining activity at 10 µM (EP2-L301I; [6]) did it give?
The remaining activity at 10 µM was 16.7%.

What about the remaining activity at 1 µM (EP2-L301I; [7]) of the same molecule?
Its remaining activity at 1 µM is 17.9%.

And the remaining activity at 0.1 µM (EP2-L301I; 1 h, ligand log([M]) -7, Fig. S7B, read-out: % cAMP activity (normalized to WT))?
Its remaining activity at 0.1 µM is 74.8%.

And the remaining activity at 0.0001 µM (EP2-L301I; [8])?
The remaining activity at 0.0001 µM was 111%.

And the remaining activity at 10 pM (EP2-L301I; [9])?
The remaining activity at 10 pM was 123%.

What about the remaining activity at 1 pM (EP2-L301I; [10]) of the same molecule?
The remaining activity at 1 pM was 120%.

And the “cAMP activity (∆pIC50 from EP2 WT)” value (EP2-L301I; Appendix Fig. S7A)?
Its value is -0.046 and -0.334 and -0.171.

What about the remaining activity at 10 µM (EP2-M116L; [6]) of the same molecule?
The remaining activity at 10 µM was 12.1%.

What about the remaining activity at 0.0001 µM (EP2-M116L; [8]) of the same molecule?
The remaining activity at 0.0001 µM was 107%.

And the remaining activity at 10 pM (EP2-M116L; [9])?
The remaining activity at 10 pM was 124%.

What about the remaining activity at 1 pM (EP2-M116L; [10]) of the same molecule?
Its remaining activity at 1 pM is 116%.

What about the “cAMP activity (∆pIC50 from EP2 WT)” value (EP2-M116L; Appendix Fig. S7A) of the same molecule?
Its value is -0.454 and -0.463 and -0.341.

What about the remaining activity at 1 µM (EP2-I85V; [7]) of the same molecule?
The remaining activity at 1 µM was 12.2%.

What about the remaining activity at 0.0001 µM (EP2-I85V; [8]) of the same molecule?
The remaining activity at 0.0001 µM was 102%.

What about the remaining activity at 10 pM (EP2-I85V; [9]) of the same molecule?
Its remaining activity at 10 pM is 108%.

What about the “cAMP activity (∆pIC50 from EP2 WT)” value (EP2-I85V; Appendix Fig. S7A) of the same molecule?
The value was -0.555 and -0.639 and -0.556.

And the IC50 [1]?
The IC50 was 50.1 nM.

And the “TG6-129 cAMP activity (∆pIC50 from EP2 WT), Mean” value ([1]; S305A, Mean)?
Its value is 0.384.

And the ΔpIC50 [1, 11]?
Its ΔpIC50 is 0.38 ± 0.10.

And the IC50 [2]?
Its IC50 is 18.6 µM.

What about the remaining activity at 100 µM ([2]; 1 h, TG6-129 log([M]) -4.00, EP4-V72A, read-out: % cAMP activity (normalized to WT)) of the same molecule?
The remaining activity at 100 µM was 9.67%.

And the remaining activity at […] ([2]; 1 h, TG6-129 log([M]) -4.70, EP4-V72A, read-out: % cAMP activity (normalized to WT))?
The remaining activity at […] was 26.1%.

What about the remaining activity at […] ([2]; 1 h, TG6-129 log([M]) -5.40, EP4-V72A, read-out: % cAMP activity (normalized to WT)) of the same molecule?
Its remaining activity at […] is 41.3%.

And the remaining activity at […] ([2]; 1 h, TG6-129 log([M]) -6.10, EP4-V72A, read-out: % cAMP activity (normalized to WT))?
The remaining activity at […] was 40.6%.

And the remaining activity at 0.1585 µM ([2]; 1 h, TG6-129 log([M]) -6.80, EP4-V72A, read-out: % cAMP activity (normalized to WT))?
The remaining activity at 0.1585 µM was 44.9%.

What about the remaining activity at 0.03236 µM ([2]; 1 h, TG6-129 log([M]) -7.49, EP4-V72A, read-out: % cAMP activity (normalized to WT)) of the same molecule?
The remaining activity at 0.03236 µM was 51.4%.

What about the remaining activity at 0.006457 µM ([2]; 1 h, TG6-129 log([M]) -8.19, EP4-V72A, read-out: % cAMP activity (normalized to WT)) of the same molecule?
The remaining activity at 0.006457 µM was 46.4%.

And the remaining activity at 0.001288 µM ([2]; 1 h, TG6-129 log([M]) -8.89, EP4-V72A, read-out: % cAMP activity (normalized to WT))?
The remaining activity at 0.001288 µM was 40.4%.

What about the “TG6-129 cAMP activity (∆pIC50 from EP4 WT), Mean” value ([2]; V72A, Mean) of the same molecule?
Its value is -0.480.

And the “TG6-129 cAMP activity (∆pIC50 from EP4 WT)” value ([2]; V72A, single experiments 1st-3rd)?
Its value is -0.475 and -0.451 and -0.514.

And the ΔpIC50 [2, 11]?
Its ΔpIC50 is -0.48 ± 0.02.

And the IC50 [3]?
Its IC50 is 5.01 µM.

And the remaining activity at 100 µM ([3]; 1 h, TG6-129 log([M]) -4.00, EP4-WT, read-out: % cAMP activity (normalized to WT))?
Its remaining activity at 100 µM is 7.78%.

What about the remaining activity at […] ([3]; 1 h, TG6-129 log([M]) -4.70, EP4-WT, read-out: % cAMP activity (normalized to WT)) of the same molecule?
The remaining activity at […] was 22.1%.

What about the remaining activity at […] ([3]; 1 h, TG6-129 log([M]) -5.40, EP4-WT, read-out: % cAMP activity (normalized to WT)) of the same molecule?
Its remaining activity at […] is 65.6%.

And the remaining activity at […] ([3]; 1 h, TG6-129 log([M]) -6.10, EP4-WT, read-out: % cAMP activity (normalized to WT))?
The remaining activity at […] was 88.8%.

What about the remaining activity at 0.1585 µM ([3]; 1 h, TG6-129 log([M]) -6.80, EP4-WT, read-out: % cAMP activity (normalized to WT)) of the same molecule?
The remaining activity at 0.1585 µM was 91.8%.

And the remaining activity at 0.03236 µM ([3]; 1 h, TG6-129 log([M]) -7.49, EP4-WT, read-out: % cAMP activity (normalized to WT))?
The remaining activity at 0.03236 µM was 96%.

And the remaining activity at 0.006457 µM ([3]; 1 h, TG6-129 log([M]) -8.19, EP4-WT, read-out: % cAMP activity (normalized to WT))?
Its remaining activity at 0.006457 µM is 103%.

What about the remaining activity at 0.001288 µM ([3]; 1 h, TG6-129 log([M]) -8.89, EP4-WT, read-out: % cAMP activity (normalized to WT)) of the same molecule?
The remaining activity at 0.001288 µM was 106%.

What about the “TG6-129 cAMP activity (∆pIC50 from EP4 WT)” value ([3]; WT, single experiments 1st-3rd) of the same molecule?
The value was -0.065 and 0.051 and 0.101.

And the IC50 [4]?
Its IC50 is 58.9 nM.

And the remaining activity at 0.0001 µM ([4]; 1 h, TG6-129 log([M]) -10, EP2-S308A, read-out: % cAMP activity (normalized to WT))?
Its remaining activity at 0.0001 µM is 87.7%.

What about the “TG6-129 cAMP activity (∆pIC50 from EP2 WT), Mean” value ([4]; S308A, Mean) of the same molecule?
The value was 0.246.

And the IC50 [5]?
Its IC50 is 87.1 nM.

And the remaining activity at 10 µM ([5]; 1 h, TG6-129 log([M]) -5, EP2-WT, read-out: % cAMP activity (normalized to WT))?
The remaining activity at 10 µM was 3.2%.

And the remaining activity at 1 µM ([5]; 1 h, TG6-129 log([M]) -6, EP2-WT, read-out: % cAMP activity (normalized to WT))?
Its remaining activity at 1 µM is 6.32%.

And the remaining activity at 0.1 µM ([5]; 1 h, TG6-129 log([M]) -7, EP2-WT, read-out: % cAMP activity (normalized to WT))?
Its remaining activity at 0.1 µM is 34.4%.

And the remaining activity at 0.001 µM ([5]; 1 h, TG6-129 log([M]) -9, EP2-WT, read-out: % cAMP activity (normalized to WT))?
Its remaining activity at 0.001 µM is 94.3%.

And the remaining activity at 0.0001 µM ([5]; 1 h, TG6-129 log([M]) -10, EP2-WT, read-out: % cAMP activity (normalized to WT))?
The remaining activity at 0.0001 µM was 104%.
